Assays:
[1] = target: T1, DNA polymerase catalytic subunit (Human cytomegalovirus (strain AD169), UniProt P08546); assay: CMV and VZV Polymerase Assays
T1 sequence (P08546 whole entry): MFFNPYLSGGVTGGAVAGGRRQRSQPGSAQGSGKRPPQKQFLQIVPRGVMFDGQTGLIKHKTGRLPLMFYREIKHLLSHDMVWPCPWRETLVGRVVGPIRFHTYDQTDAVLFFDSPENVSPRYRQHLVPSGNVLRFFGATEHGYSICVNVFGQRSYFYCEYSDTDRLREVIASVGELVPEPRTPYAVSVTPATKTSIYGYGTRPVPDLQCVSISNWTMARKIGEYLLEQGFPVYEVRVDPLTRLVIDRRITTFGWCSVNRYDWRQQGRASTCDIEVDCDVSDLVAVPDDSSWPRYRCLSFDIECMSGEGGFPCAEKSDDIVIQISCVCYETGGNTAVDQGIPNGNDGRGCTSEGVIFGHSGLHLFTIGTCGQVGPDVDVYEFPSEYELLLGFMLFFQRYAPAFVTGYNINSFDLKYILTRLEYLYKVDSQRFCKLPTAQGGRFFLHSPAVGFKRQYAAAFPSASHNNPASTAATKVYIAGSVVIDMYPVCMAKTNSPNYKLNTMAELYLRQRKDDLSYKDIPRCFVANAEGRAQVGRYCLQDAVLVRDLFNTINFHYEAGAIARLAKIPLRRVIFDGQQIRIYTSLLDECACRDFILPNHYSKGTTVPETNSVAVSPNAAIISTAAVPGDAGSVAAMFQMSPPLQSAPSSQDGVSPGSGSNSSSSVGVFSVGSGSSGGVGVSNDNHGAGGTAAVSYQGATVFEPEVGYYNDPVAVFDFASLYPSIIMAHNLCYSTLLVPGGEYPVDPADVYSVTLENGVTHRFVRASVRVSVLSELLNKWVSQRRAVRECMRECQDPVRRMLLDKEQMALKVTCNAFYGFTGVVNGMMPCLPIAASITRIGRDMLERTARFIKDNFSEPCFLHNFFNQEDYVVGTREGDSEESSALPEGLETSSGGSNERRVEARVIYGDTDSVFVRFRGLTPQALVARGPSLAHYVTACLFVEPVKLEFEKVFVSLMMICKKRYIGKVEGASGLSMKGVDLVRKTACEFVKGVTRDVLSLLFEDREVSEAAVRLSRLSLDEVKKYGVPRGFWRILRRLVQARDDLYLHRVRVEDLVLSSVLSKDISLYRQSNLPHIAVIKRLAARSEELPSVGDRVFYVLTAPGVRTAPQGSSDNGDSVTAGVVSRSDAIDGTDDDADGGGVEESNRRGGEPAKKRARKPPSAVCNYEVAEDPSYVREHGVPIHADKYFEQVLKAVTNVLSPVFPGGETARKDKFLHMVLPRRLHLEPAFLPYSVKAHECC
Protocol: (§1) Human cytomegalovirus and varicella zoster virus DNA polymerases were expressed via baculovirus vector in SF21 cells and purified. Heterodimeric nucleic acid substrate used in the herpesvirus polymerase reactions were generated by annealing a 59-mer template to a 17-mer digoxigenin-labeled primer. Polymerase (HCMV final concentration of 0.2 nM; VZV final concentration of 0.4 nM) was combined with an inhibitor compound or DMSO in assay buffer (10 mM HEPES, pH 7.5, 25 mM KCl, 25 mM NaCl, 5 mM MgCl2, 5% glycerol, 0.67 mg/ml bovine serum albumin, and 1 mM tris(2-carboxyethyl)phosphine)), and this mixture was pre-incubated for 30 minutes at room temperature in 384-well microtiter plates. The polymerization reaction was initiated by the addition of template/primer substrate (final concentration: 1.6 nM), and dNTPs (final concentration: 24 nM dCTP, 24 nMdGTP, 16 nM dATP, 16 nM dTTP, and 0.8 nM biotin-dUTP). After a 60 minute incubation period at 37° C., the reactions were terminated using quench buffer (25 mM HEPES pH 7.5, 100 mM NaCl, 0.25% Tween-20, 12 mM EDTA, and 1 mg/ml bovine serum albumin). Incorporation of biotinylated UTP was detected with 2.5-5 μg/mL anti-DIG AlphaLISA acceptor beads and 5-10 μg/mL streptavidin AlphaLISA donor beads (PerkinElmer). […]

[2] = target: T2, DNA polymerase catalytic subunit (Varicella-zoster virus (strain Dumas), UniProt P09252); assay: CMV and VZV Polymerase Assays
T2 sequence (P09252 whole entry): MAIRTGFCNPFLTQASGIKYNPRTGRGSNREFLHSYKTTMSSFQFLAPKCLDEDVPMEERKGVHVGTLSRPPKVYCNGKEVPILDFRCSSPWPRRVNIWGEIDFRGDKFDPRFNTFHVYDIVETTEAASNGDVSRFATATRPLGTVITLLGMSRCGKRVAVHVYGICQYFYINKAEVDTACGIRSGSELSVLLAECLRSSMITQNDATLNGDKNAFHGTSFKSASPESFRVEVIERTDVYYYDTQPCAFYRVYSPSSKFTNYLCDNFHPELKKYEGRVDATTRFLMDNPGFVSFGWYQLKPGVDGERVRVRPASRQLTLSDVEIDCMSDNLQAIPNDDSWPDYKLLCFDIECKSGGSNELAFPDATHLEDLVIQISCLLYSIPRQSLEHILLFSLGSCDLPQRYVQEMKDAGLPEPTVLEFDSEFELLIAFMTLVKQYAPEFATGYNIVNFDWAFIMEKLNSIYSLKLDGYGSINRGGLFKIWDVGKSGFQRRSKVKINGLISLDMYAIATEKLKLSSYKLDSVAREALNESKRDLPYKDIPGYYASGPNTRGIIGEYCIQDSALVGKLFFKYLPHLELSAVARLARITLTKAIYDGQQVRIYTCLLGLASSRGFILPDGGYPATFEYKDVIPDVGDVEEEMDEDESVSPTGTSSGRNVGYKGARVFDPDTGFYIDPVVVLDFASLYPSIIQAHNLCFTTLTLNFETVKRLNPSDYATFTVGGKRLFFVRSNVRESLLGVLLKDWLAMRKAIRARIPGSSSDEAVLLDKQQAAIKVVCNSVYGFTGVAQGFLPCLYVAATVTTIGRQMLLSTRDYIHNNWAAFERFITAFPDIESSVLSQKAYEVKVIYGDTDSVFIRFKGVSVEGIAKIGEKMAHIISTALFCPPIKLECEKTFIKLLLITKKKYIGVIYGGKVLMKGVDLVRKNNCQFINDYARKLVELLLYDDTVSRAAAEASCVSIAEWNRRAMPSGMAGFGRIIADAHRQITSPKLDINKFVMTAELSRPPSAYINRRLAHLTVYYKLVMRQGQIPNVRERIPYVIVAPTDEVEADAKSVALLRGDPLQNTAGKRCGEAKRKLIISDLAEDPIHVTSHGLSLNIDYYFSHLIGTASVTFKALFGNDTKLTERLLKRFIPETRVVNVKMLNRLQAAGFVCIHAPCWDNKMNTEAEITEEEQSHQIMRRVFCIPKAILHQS
Protocol: as §1

O=C1OC[C@@H]2C[C@@H](Oc3cc4c(=O)n(Cc5ccc(Cl)cc5)cnc4nc3-c3cnco3)CCN12 [US12497405, Compound 37]
IC50 [1]: 1.1 nM
IC50 [2]: 0.22 nM
